Legend:
[1] = target: Cytochrome P450 2D6 (Homo sapiens, UniProt P10635); conditions: bti-tn-5b1-4; also: in other assays of this panel Not Active means under 50% inhibition at 10 µM
[2] = DRUGMATRIX: Calcium Channel Type L, Benzothiazepine radioligand binding (ligand: [3H] Diltiazem); format: cell membranes, Rattus norvegicus, Wistar, Brain, Membrane; conditions: Not Active = under 50% inhibition at 10 µM
[3] = target: 5-hydroxytryptamine receptor 6 (Homo sapiens, UniProt P50406); format: cell membranes, HeLa, Membrane; conditions: hela; also: in other assays of this panel Not Active means under 50% inhibition at 10 µM
[4] = target: Cytochrome P450 2E1 (Homo sapiens, UniProt P05181); conditions: bti-tn-5b1-4; also: in other assays of this panel Not Active means under 50% inhibition at 10 µM
[5] = target: T1, Polyunsaturated fatty acid lipoxygenase ALOX15 (Oryctolagus cuniculus, UniProt P12530); assay: biochemical; format: tissue-based, Reticulocytes; conditions: reticulocytes;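 also: inhibition of 15-lipoxygenase enzyme activity measured with linoleic acid as the substrate; in other assays of this panel Not Active means under 50% inhibition at 10 µM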
T1 sequence (P12530 whole entry): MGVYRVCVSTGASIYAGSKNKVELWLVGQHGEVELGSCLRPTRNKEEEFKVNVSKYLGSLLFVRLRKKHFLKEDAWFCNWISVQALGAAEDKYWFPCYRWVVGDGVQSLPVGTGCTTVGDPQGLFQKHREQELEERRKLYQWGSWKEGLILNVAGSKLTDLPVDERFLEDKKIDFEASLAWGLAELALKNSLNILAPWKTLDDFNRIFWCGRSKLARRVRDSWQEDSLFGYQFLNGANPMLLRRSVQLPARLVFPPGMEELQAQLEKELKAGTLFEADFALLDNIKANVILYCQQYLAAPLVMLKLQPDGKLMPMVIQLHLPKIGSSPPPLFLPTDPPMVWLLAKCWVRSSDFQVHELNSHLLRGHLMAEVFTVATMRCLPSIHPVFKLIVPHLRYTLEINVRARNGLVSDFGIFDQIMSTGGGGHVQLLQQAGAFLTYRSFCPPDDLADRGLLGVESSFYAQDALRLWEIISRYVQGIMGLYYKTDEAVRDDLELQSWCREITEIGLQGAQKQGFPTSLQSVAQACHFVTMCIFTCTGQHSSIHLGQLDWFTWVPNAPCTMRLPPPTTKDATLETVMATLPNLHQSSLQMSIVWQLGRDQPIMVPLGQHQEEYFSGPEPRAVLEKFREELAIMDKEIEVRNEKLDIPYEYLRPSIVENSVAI

[6] = target: T2, Adenosine receptor A3 (Homo sapiens, UniProt P0DMS8); format: cell membranes, CHO-K1, Membrane; conditions: cho-k1
T2 sequence (P0DMS8 whole entry): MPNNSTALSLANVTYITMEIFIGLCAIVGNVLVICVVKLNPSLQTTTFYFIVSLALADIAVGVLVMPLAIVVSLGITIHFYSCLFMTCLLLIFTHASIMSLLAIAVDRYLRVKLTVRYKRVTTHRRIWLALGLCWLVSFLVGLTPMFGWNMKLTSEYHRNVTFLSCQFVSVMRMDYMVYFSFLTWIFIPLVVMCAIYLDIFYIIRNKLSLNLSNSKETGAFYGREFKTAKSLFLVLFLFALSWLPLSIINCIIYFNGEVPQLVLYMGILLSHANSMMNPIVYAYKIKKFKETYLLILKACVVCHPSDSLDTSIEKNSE

[7] = target: T3, Alpha-1B adrenergic receptor (Rattus norvegicus, UniProt P15823); assay: DRUGMATRIX: Alpha-1B adrenergic receptor radioligand binding (ligand: prazosin); format: cell membranes, Wistar, Liver, Membrane; conditions: Not Active = under 50% inhibition at 10 µM
T3 sequence (P15823 whole entry): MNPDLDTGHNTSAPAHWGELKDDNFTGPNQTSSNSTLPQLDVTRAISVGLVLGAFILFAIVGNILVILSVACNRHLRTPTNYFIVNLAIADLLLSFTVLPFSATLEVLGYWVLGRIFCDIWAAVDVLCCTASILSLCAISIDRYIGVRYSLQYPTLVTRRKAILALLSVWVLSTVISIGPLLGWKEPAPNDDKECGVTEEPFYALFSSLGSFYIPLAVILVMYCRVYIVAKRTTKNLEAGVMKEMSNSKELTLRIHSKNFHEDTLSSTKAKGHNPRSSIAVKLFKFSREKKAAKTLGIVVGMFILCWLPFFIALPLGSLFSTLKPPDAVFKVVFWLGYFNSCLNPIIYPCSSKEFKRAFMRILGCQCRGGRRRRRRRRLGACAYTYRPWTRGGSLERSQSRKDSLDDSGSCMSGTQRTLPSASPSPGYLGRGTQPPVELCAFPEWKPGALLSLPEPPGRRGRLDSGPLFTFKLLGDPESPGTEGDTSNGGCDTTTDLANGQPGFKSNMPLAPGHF

[8] = DRUGMATRIX: GABAA, Chloride Channel, TBOB radioligand binding (ligand: [3H] TBOB); format: cell membranes, Rattus norvegicus, Wistar, Cerebral cortex, Membrane; conditions: Not Active = under 50% inhibition at 10 µM
[9] = target: Histamine H2 receptor (Homo sapiens, UniProt P25021); format: cell membranes, CHO-K1, Membrane; conditions: cho-k1; also: in other assays of this panel Not Active means under 50% inhibition at 10 µM
[10] = target: Beta-3 adrenergic receptor (Homo sapiens, UniProt P13945); assay: DRUGMATRIX: Adrenergic beta3 radioligand binding (ligand: [125I] Cyanopindolol); format: cell membranes, HEK293, Membrane; conditions: hek293; Not Active = under 50% inhibition at 10 µM
[11] = target: 5-hydroxytryptamine receptor 2B (Homo sapiens, UniProt P41595); format: cell membranes, CHO-K1, Membrane; conditions: cho-k1; also: in other assays of this panel Not Active means under 50% inhibition at 10 µM
[12] = target: D(1A) dopamine receptor (Homo sapiens, UniProt P21728); assay: DRUGMATRIX: Dopamine D1 radioligand binding (ligand: [3H] SCH-23390); format: cell membranes, CHO, Membrane; conditions: cho; Not Active = under 50% inhibition at 10 µM
[13] = target: T4, C-X-C chemokine receptor type 2 (Homo sapiens, UniProt P25025); format: cell membranes, Membrane; conditions: cho-k1; also: in other assays of this panel Not Active means under 50% inhibition at 10 µM
T4 sequence (P25025 whole entry): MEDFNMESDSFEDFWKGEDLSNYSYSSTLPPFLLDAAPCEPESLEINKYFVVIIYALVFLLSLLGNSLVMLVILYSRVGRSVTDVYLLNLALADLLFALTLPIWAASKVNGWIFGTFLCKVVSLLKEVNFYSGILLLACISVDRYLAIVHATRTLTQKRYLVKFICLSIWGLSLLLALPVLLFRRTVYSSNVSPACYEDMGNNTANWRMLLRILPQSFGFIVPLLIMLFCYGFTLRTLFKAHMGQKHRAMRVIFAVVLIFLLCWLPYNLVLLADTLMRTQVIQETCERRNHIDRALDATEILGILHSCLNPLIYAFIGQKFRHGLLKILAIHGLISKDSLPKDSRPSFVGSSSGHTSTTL

Chain of Cytochrome P450 2E1 (P05181 whole entry): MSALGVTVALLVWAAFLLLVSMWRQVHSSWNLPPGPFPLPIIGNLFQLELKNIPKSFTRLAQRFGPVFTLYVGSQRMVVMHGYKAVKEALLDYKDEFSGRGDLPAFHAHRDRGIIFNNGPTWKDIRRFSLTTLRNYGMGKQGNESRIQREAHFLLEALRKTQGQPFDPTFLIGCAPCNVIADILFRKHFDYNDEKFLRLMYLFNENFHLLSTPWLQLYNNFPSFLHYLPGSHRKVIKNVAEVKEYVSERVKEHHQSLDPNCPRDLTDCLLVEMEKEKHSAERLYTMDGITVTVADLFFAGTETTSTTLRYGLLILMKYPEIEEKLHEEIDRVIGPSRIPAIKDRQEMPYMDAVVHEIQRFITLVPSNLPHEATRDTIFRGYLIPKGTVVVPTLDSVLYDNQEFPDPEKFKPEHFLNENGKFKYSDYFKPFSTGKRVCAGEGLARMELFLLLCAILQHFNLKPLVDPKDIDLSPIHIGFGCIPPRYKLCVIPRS
Chain of D(1A) dopamine receptor (P21728 whole entry): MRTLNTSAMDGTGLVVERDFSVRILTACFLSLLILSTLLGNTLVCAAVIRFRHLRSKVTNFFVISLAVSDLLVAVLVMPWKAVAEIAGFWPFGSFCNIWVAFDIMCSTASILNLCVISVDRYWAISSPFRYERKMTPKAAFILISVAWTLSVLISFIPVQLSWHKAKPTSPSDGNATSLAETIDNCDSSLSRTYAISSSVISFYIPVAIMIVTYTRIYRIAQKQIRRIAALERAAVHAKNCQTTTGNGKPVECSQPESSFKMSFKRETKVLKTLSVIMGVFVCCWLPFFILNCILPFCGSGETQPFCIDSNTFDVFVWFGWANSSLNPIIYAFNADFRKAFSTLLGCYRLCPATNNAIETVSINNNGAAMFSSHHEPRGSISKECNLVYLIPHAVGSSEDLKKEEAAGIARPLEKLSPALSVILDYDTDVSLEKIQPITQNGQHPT
Chain of Beta-3 adrenergic receptor (P13945 whole entry): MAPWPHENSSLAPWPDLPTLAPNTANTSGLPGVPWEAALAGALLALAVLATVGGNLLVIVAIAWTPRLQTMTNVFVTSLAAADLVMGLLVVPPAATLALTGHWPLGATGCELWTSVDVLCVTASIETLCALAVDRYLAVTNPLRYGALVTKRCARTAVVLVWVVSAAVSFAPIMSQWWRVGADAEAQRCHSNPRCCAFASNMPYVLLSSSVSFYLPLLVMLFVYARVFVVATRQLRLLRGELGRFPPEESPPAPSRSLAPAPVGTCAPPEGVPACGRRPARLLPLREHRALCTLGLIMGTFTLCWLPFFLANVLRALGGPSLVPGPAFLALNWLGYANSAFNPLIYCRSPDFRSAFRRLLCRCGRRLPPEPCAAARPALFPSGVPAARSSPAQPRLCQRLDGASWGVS
Chain of 5-hydroxytryptamine receptor 2B (P41595 whole entry): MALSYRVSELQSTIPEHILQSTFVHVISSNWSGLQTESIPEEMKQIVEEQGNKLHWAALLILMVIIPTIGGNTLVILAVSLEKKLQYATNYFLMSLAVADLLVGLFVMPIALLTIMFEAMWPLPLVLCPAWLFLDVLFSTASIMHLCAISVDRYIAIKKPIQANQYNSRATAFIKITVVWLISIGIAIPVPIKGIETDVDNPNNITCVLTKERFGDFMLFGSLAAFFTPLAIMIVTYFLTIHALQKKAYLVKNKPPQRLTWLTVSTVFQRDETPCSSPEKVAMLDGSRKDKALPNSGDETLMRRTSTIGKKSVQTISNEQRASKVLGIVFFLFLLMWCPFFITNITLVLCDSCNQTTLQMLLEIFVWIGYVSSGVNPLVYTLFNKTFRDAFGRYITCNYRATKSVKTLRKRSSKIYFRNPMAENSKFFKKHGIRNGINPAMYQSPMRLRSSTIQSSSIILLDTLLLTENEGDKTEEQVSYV
Chain of Histamine H2 receptor (P25021 whole entry): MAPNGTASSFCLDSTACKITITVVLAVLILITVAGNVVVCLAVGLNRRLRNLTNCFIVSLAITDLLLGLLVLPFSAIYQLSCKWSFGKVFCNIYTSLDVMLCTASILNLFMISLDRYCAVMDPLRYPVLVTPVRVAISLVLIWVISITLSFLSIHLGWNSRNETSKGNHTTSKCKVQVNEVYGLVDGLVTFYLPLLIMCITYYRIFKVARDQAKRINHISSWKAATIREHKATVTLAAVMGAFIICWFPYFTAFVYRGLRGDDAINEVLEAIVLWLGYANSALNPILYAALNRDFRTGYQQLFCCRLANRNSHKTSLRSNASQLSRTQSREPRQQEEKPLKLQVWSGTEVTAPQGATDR
Chain of Cytochrome P450 2D6 (P10635 whole entry): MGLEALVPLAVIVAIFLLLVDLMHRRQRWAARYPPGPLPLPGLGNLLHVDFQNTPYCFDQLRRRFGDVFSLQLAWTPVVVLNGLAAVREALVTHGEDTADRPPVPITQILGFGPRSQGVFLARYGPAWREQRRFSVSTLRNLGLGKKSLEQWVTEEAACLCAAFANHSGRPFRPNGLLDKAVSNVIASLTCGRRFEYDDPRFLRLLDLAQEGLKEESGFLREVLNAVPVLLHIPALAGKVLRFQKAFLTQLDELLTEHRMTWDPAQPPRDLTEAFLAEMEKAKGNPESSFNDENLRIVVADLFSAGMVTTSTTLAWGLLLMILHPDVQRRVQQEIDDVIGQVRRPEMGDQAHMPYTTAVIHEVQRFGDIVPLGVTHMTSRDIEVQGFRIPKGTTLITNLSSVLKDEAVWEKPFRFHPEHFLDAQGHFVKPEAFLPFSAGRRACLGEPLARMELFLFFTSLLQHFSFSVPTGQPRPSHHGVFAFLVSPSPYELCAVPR
Chain of 5-hydroxytryptamine receptor 6 (P50406 whole entry): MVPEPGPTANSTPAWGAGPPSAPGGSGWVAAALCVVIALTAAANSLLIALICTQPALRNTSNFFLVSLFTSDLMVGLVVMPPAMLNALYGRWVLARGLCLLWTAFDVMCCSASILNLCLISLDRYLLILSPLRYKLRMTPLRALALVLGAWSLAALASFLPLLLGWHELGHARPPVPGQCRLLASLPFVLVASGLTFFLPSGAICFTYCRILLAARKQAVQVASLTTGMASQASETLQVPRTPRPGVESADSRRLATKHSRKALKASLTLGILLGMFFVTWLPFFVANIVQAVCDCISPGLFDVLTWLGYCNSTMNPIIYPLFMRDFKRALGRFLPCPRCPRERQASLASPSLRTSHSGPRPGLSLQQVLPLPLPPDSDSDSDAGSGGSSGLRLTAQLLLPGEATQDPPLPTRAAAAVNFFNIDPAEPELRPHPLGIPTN

NCC1(CC(=O)O)CCCCC1 [GABAPENTIN]
Not Active: IC50 [1] | Ki [1] | IC50 [2] | Ki [2] | IC50 [3] | IC50 [4] | Ki [4] | IC50 [5] | IC50 [6] | IC50 [7] | IC50 [8] | Ki [8] | IC50 [9] | IC50 [10] | IC50 [11] | IC50 [12] | IC50 [13]

CN1C(C(=O)Nc2ccccn2)=C(O)c2ccccc2S1(=O)=O [PIROXICAM]
Not Active: IC50 [1] | Ki [1] | IC50 [2] | Ki [2] | IC50 [3] | IC50 [4] | Ki [4] | IC50 [5] | IC50 [6] | IC50 [7] | IC50 [8] | Ki [8] | IC50 [9] | IC50 [10] | IC50 [11] | IC50 [12] | IC50 [13]

C=C1[C@@H]2CCC3[C@@](CC[C@@H]4[C@H](C(=O)O)C[C@@H](O[C@@H]5O[C@H](CO)[C@@H](OS(=O)(=O)[O-])[C@H](OS(=O)(=O)[O-])[C@H]5OC(=O)CC(C)C)C[C@@]34C)(C2)[C@@H]1O.[K+].[K+] (stereo partly specified) [ATRACTYLOSIDE]
Not Active: IC50 [1] | Ki [1] | IC50 [2] | Ki [2] | IC50 [3] | IC50 [4] | Ki [4] | IC50 [5] | IC50 [6] | IC50 [7] | IC50 [8] | Ki [8] | IC50 [9] | IC50 [10] | IC50 [11] | IC50 [12] | IC50 [13]

C=C1CC[C@H](O)C/C1=C/C=C1\CCC[C@]2(C)[C@@H]([C@H](C)/C=C/[C@H](C)C(C)C)CC[C@@H]12 [ERGOCALCIFEROL]
Not Active: IC50 [1] | Ki [1] | IC50 [2] | Ki [2] | IC50 [3] | IC50 [4] | Ki [4] | IC50 [5] | IC50 [6] | IC50 [7] | IC50 [8] | Ki [8] | IC50 [9] | IC50 [10] | IC50 [11] | IC50 [12] | IC50 [13]

CCc1cccc2c3c([nH]c12)C(CC)(CC(=O)O)OCC3 (stereo unspecified) [ETODOLAC]
Not Active: IC50 [1] | Ki [1] | IC50 [2] | Ki [2] | IC50 [3] | IC50 [4] | Ki [4] | IC50 [5] | IC50 [6] | IC50 [7] | IC50 [8] | Ki [8] | IC50 [9] | IC50 [10] | IC50 [11] | IC50 [12] | IC50 [13]

CARBOPLATIN
Not Active: IC50 [1] | Ki [1] | IC50 [2] | Ki [2] | IC50 [3] | Ki [3] | IC50 [4] | Ki [4] | IC50 [5] | Ki [5] | IC50 [6] | Ki [6] | IC50 [7] | Ki [7] | IC50 [8] | Ki [8] | IC50 [9] | Ki [9] | IC50 [10] | Ki [10] | IC50 [11] | Ki [11] | IC50 [12] | Ki [12] | IC50 [13] | Ki [13]
